According to US20240059703A1 (AMGEN INC., priority 2021, published 2024):
pIC50: −log10 of the molar value.

Columns and labels:
[1] = system: A549 (human lung carcinoma) cells; assay: Cell Viability Assay (CellTiter-Glo), A549; format: cell-based; settings: Homo sapiens, A549, 72 h
Summary of the method: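 Seeding at 1.67E+04 cells/mL is followed by overnight attachment at 37° C., 5% CO2. Serially diluted compound is added for 72 h. Viability is read by CellTiter-Glo luminescence, scaled to DMSO and fitted (4-parameter logistic) to give IC50.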

KRAS G12C = KRAS G12C (Homo sapiens (Human), UniProt P01116, C118A/G12C); assay: 2 h coupled exchange assay; format: biochemical; settings: Avg 2 h Coupled exchange IC50, 2 h compound pre-incubation
Protocol: The term “2 h coupled exchange assay” or “20 h coupled exchange assay” as used herein refers to the assay described in the Section entitled “BIOLOGICAL EVALUATION.”

[2] = system: MIA PaCa-2 (human pancreatic carcinoma) cells; assay: Cell Viability Assay (CellTiter-Glo), MIA PaCa-2; format: cell-based; settings: Homo sapiens, MIA PaCa-2, 72 h
Protocol: Serially-diluted compound or DMSO was added to the cells, and plates were incubated at 37° C., 5% CO2 for 72 h. Cell viability was measured using a CellTiter-Glo® Luminescent Cell Viability Assay kit (Promega) according to the manufacturer's protocol. The luminescence signal of treated samples was normalized to DMSO control, and data were analyzed using a 4-parameter logistic model to calculate IC50 values.

[3] = SOS-mediated nucleotide exchange

Sequence of KRAS G12C (P01116 other isoform, or with tags, fused parts or gaps G12C/C118A): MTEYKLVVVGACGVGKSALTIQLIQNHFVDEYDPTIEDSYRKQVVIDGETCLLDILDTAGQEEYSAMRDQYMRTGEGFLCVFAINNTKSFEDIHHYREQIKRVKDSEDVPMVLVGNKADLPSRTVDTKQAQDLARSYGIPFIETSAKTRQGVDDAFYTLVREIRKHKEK

pIC50 [1]	pIC50 (KRAS G12C; [3])	pIC50 [2]	pIC50 (KRAS G12C)	SMILES
< 5.30	7.46	6.55		C=CC(=O)N1CC2(CCN(c3nc4c(c(-c5ccccc5F)c3C#N)CCC(c3ccnn3C)C4)C2)C1 [Example 13-26, (7R)-4-(2-fluorophenyl)-7-(1-methyl-1H-pyrazol-5-yl)-2-(2-(2-propenoyl)-2,6-diazaspiro[3.4]octan-6-yl)-5,6,7,8-tetrahydro-3-quinolinecarbonitrile|(7S)-4-(2-fluorophenyl)-7-(1-methyl-1H-pyrazol-5-yl)-2-(2-(2-propenoyl)-2,6-diazaspiro[3.4]octan-6-yl)-5,6,7,8-tetrahydro-3-quinolinecarbonitrile]
< 5.30		5.92	7.05	C=CC(=O)N1CC2(CCN(c3nc4c(c(-c5c(C)ccc6cn[nH]c56)c3C#N)COC(C)(C)C4)C2)C1 [Example 14-80, 7,7-dimethyl-4-(6-methyl-1H-indazol-7-yl)-2-(2-(2-propenoyl)-2,6-diazaspiro[3.4]octan-6-yl)-7,8-dihydro-5H-pyrano[4,3-b]pyridine-3-carbonitrile]
< 5.30	7.07	< 5.30		C=CC(=O)N1CC2(CCN(c3nc4c(c(-c5c(C)ccc6[nH]ncc56)c3C#N)CC(C3CC3)C4)C2)C1 [Example 13-83, (6R)-6-cyclopropyl-4-(5-methyl-1H-indazol-4-yl)-2-(2-(2-propenoyl)-2,6-diazaspiro[3.4]octan-6-yl)-6,7-dihydro-5H-cyclopenta[b]pyridine-3-carbonitrile|(6S)-6-cyclopropyl-4-(5-methyl-1H-indazol-4-yl)-2-(2-(2-propenoyl)-2,6-diazaspiro[3.4]octan-6-yl)-6,7-dihydro-5H-cyclopenta[b]pyridine-3-carbonitrile]
5.44	7.23	6.26		C=CC(=O)N1CC2(CCN(c3nc4c(c(-c5c(C)ccc6[nH]ncc56)c3C#N)CCCC4)C2)C1 [Example 2-8, 4-(5-methyl-1H-indazol-4-yl)-2-(2-(2-propenoyl)-2,6-diazaspiro[3.4]octan-6-yl)-5,6,7,8-tetrahydro-3-quinolinecarbonitrile]
< 5.30	7.74	8.52		C=CC(=O)N1CC2(CCN(c3cc4c(c(-c5c(C)c(Cl)cc6cnn(C)c56)c3C#N)OCCC4)C2)C1 [Example 2-104, 8-(5-chloro-1,6-dimethyl-1H-indazol-7-yl)-6-(2-(2-propenoyl)-2,6-diazaspiro[3.4]octan-6-yl)-3,4-dihydro-2H-chromene-7-carbonitrile]
< 5.30	7.14	6.28		C=CC(=O)N1CC2(CCN(c3nc4c(c(-c5c(C)ccc6cnn(C)c56)c3C#N)C[C@H]3C[C@@H]4C3)C2)C1 [Example 13-110, (1S,9S)-6-(1,6-dimethyl-1H-indazol-7-yl)-4-(2-(2-propenoyl)-2,6-diazaspiro[3.4]octan-6-yl)-3-azatricyclo[7.1.1.0^2,7]undeca-2,4,6-triene-5-carbonitrile]
< 5.30	7.59	6.99		C=CC(=O)N1CC2(CCN(c3nc4c(c(-c5c(Cl)ccc6[nH]ncc56)c3C#N)COC(C)(C)C4)C2)C1 [Example 13-148, 4-(5-chloro-1H-indazol-4-yl)-7,7-dimethyl-2-(2-(2-propenoyl)-2,6-diazaspiro[3.4]octan-6-yl)-7,8-dihydro-5H-pyrano[4,3-b]pyridine-3-carbonitrile]
< 5.30		7.10	7.15	C=CC(=O)N1CC2(CCN(c3nc4c(c(-c5c(C)ccc6cnn(C)c56)c3C)CC[C@@H](c3c(C)cnn3C)C4)C2)C1 (single isomer, unassigned) [Example 14-98]
< 5.30	7.64	8.52		C=CC(=O)N1CC2(CCN(c3nc4c(c(-c5c(C)c(Cl)cc6[nH]ncc56)c3Cl)COC(C)(C)C4)C2)C1 (single isomer, unassigned) [Example 2-109, (P)-1-(6-(3-chloro-4-(6-chloro-5-methyl-1H-indazol-4-yl)-7,7-dimethyl-7,8-dihydro-5H-pyrano[4,3-b]pyridin-2-yl)-2,6-diazaspiro[3.4]octan-2-yl)-2-propen-1-one]
< 5.30	7.59	7.21		C=CC(=O)N1CC2(CCN(c3cc4c(c(-c5cc(O)cc6ccccc56)c3C#N)OCCC4)C2)C1 [Example 2-52, 8-(3-hydroxy-1-naphthalenyl)-6-(2-(2-propenoyl)-2,6-diazaspiro[3.4]octan-6-yl)-3,4-dihydro-2H-chromene-7-carbonitrile]
5.11		5.63	6.40	C=CC(=O)N1CC2(CCN(c3nc4c(c(-c5ccccc5OC)c3C#N)CCC(c3scnc3C)=C4)C2)C1 [Example 23-39, 4-(2-methoxyphenyl)-7-(4-methyl-1,3-thiazol-5-yl)-2-(2-(2-propenoyl)-2,6-diazaspiro[3.4]octan-6-yl)-5,6-dihydro-3-quinolinecarbonitrile]
< 5.30	7.49	6.48		C=CC(=O)N1CC2(CCN(c3nc4cc(OC)ccc4c(-c4c(C)ccc5[nH]ncc45)c3C#N)C2)C1 [Example 1-45, 7-methoxy-4-(5-methyl-1H-indazol-4-yl)-2-(2-(2-propenoyl)-2,6-diazaspiro[3.4]octan-6-yl)-3-quinolinecarbonitrile]
< 4.60		6.87	6.43	C=CC(=O)N1CC2(CCN(c3nc4c(c(-c5c(C)ccc6cnn(C)c56)c3C)CCN(C3CCCN(C)C3)C4)C2)C1 [Example 18-20, 1-(6-(4-(1,6-dimethyl-1H-indazol-7-yl)-3-methyl-7-((3R)-1-methyl-3-piperidinyl)-5,6,7,8-tetrahydro-1,7-naphthyridin-2-yl)-2,6-diazaspiro[3.4]octan-2-yl)-2-propen-1-one|1-(6-(4-(1,6-dimethyl-1H-indazol-7-yl)-3-methyl-7-((3S)-1-methyl-3-piperidinyl)-5,6,7,8-tetrahydro-1,7-naphthyridin-2-yl)-2,6-diazaspiro[3.4]octan-2-yl)-2-propen-1-one]
< 5.30		5.88	7.32	C=CC(=O)N1CC2(CCN(c3nc4c(c(-c5c(O)cccc5F)c3C#N)CCC(c3scnc3C)=C4)C2)C1 [Example 23-29, 4-(2-fluoro-6-hydroxyphenyl)-7-(4-methyl-1,3-thiazol-5-yl)-2-(2-(2-propenoyl)-2,6-diazaspiro[3.4]octan-6-yl)-5,6-dihydro-3-quinolinecarbonitrile]
4.95	6.56	6.21		C=CC(=O)N1CC2(CCN(c3nc4c(c(-c5c(F)ccc6[nH]ncc56)c3C#N)COC(C)(C)C4)C2)C1 [Example 13-149, 4-(5-fluoro-1H-indazol-4-yl)-7,7-dimethyl-2-(2-(2-propenoyl)-2,6-diazaspiro[3.4]octan-6-yl)-7,8-dihydro-5H-pyrano[4,3-b]pyridine-3-carbonitrile]
< 5.30	6.33	5.58		C=CC(=O)N1CC2(CCN(c3nc4cc(OC)ccc4c(-c4c(C)ccc5cnn(C)c45)c3C)C2)C1 [Example 2-50, 1-(6-(4-(1,6-dimethyl-1H-indazol-7-yl)-7-methoxy-3-methyl-2-quinolinyl)-2,6-diazaspiro[3,4]octan-2-yl)-2-propen-1-one]
< 5.30		6.40	6.97	C=CC(=O)N1CC2(CCN(c3nc4c(c(-c5cccc6cc(O)ccc56)c3C)CCN(CC(O)C(F)(F)F)C4)C2)C1 [Example 18-18, 1-(6-(4-(6-hydroxy-1-naphthalenyl)-3-methyl-7-((2R)-3,3,3-trifluoro-2-hydroxypropyl)-5,6,7,8-tetrahydro-1,7-naphthyridin-2-yl)-2,6-diazaspiro[3.4]octan-2-yl)-2-propen-1one|1-(6-(4-(6-hydroxy-1-naphthalenyl)-3-methyl-7-((2S)-3,3,3-trifluoro-2-hydroxypropyl)-5,6,7,8-tetrahydro-1,7-naphthyridin-2-yl)-2,6-diazaspiro[3.4]octan-2-yl)-2-propen-1-one]
< 5.30		6.86	6.64	C=CC(=O)N1CC2(CCN(c3nc4c(c(-c5cc(O)cc6ccccc56)c3C)CCN(C(C)C)C4)C2)C1 [Example 18-3, 1-(6-(4-(3-hydroxy-1-naphthalenyl)-3-methyl-7-(2-propanyl)-5,6,7,8-tetrahydro-1,7-naphthyridin-2-yl)-2,6-diazaspiro[3.4]octan-2-yl)-2-propen-1-one]
< 5.30	7.42	6.83		C=CC(=O)N1CC2(CCN(c3nc4c(c(-c5cc(O)ccc5C)c3C#N)[C@@H]3CC[C@H]4C3)C2)C1 (single isomer, unassigned) [Example 14-11]
4.96	8.52	6.68		C=CC(=O)N1CC2(CCN(c3nc4c(c(-c5c(C)c(C)cc6cnn(C)c56)c3C)[C@@H]3CC[C@H]4C3)C2)C1 (atropisomer, axis not shown; (M)) [Example 2-111, (M)-1-(6-((1S,8R)-5-methyl-6-(1,5,6-trimethyl-1H-indazol-7-yl)-3-azatricyclo[6.2.1.0^2,7]undeca-2,4,6-trien-4-yl)-2,6-diazaspiro[3.4]octan-2-yl)-2-propen-1-one]
